Source: PubChem BioAssay AID1919003 (Molecular Pharmacology Branch, DTP, NCI, 2023)
pIC50: −log10 of the molar value.

System: 786-0 complex spheroids with HUVEC/MSC, growth % test/control
Test: Anticancer human tumor 786-0 cell line growth inhibition [AhR];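 note: compound exposure lasted seven days before the read-out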
Settings: for pIC50: curve of first compound; for viability, T/C: stronger effect = lower value
Method in brief: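 Spheroids combined tumor cells with HUVEC endothelial cells and human MSCs as stroma. AhR antagonists were paired with standard or investigational drugs, each dosed in half-log steps down from near clinical Cmax, or from 10 microM where Cmax was unknown.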

[1] = second compound 0.1 µM, first compound 0.00949 µM
[2] = second compound 0.1 µM, first compound 0.03 µM
[3] = second compound 0.1 µM, first compound 0.0949 µM
[4] = second compound 0.1 µM, first compound 0.3 µM
[5] = second compound 0.1 µM, first compound 0.949 µM
[6] = second compound 0.1 µM, first compound 3 µM
[7] = second compound 0.316 µM, first compound 0.00949 µM
[8] = second compound 0.316 µM, first compound 0.03 µM
[9] = second compound 0.316 µM, first compound 0.0949 µM
[10] = second compound 0.316 µM, first compound 0.3 µM
[11] = second compound 0.316 µM, first compound 0.949 µM
[12] = second compound 0.316 µM, first compound 3 µM
[13] = second compound 1 µM, first compound 0.00949 µM
[14] = second compound 1 µM, first compound 0.03 µM
[15] = second compound 1 µM, first compound 0.0949 µM
[16] = second compound 1 µM, first compound 0.3 µM
[17] = second compound 1 µM, first compound 0.949 µM
[18] = second compound 1 µM, first compound 3 µM
[19] = second compound 3.16 µM, first compound 0.00949 µM
[20] = second compound 3.16 µM, first compound 0.03 µM
[21] = second compound 3.16 µM, first compound 0.0949 µM
[22] = second compound 3.16 µM, first compound 0.3 µM
[23] = second compound 3.16 µM, first compound 0.949 µM
[24] = second compound 3.16 µM, first compound 3 µM
[25] = second compound 10 µM, first compound 0.00949 µM
[26] = second compound 10 µM, first compound 0.03 µM
[27] = second compound 10 µM, first compound 0.0949 µM
[28] = second compound 10 µM, first compound 0.3 µM
[29] = second compound 10 µM, first compound 0.949 µM
[30] = second compound 10 µM, first compound 3 µM

SMILES: CC1COCCN1c1cc(C2(S(C)(=N)=O)CC2)nc(-c2ccnc3[nH]ccc23)n1 (stereo not given) + Cc1ccccc1N=Nc1ccc(NC(=O)c2ccnn2C)c(C)c1
- pIC50 (second compound 0.1 µM): 5.22
- pIC50 (second compound 0.316 µM): 5.23
- pIC50 (second compound 1 µM): 5.19
- pIC50 (second compound 3.16 µM): 5.19
- pIC50 (second compound 10 µM): 5.28
- viability, T/C (second compound 0.1 µM, first compound 0.0316 µM): 96.9%
- viability, T/C (second compound 0.1 µM, first compound 0.1 µM): 103%
- viability, T/C (second compound 0.1 µM, first compound 0.316 µM): 97.7%
- viability, T/C (second compound 0.1 µM, first compound 1 µM): 101%
- viability, T/C (second compound 0.1 µM, first compound 3.16 µM): 79.6%
- viability, T/C (second compound 0.1 µM, first compound 10 µM): 27.6%
- viability, T/C (second compound 0.316 µM, first compound 0.0316 µM): 92%
- viability, T/C (second compound 0.316 µM, first compound 0.1 µM): 97.6%
- viability, T/C (second compound 0.316 µM, first compound 0.316 µM): 102%
- viability, T/C (second compound 0.316 µM, first compound 1 µM): 106%
- viability, T/C (second compound 0.316 µM, first compound 3.16 µM): 72.7%
- viability, T/C (second compound 0.316 µM, first compound 10 µM): 31.1%
- viability, T/C (second compound 1 µM, first compound 0.0316 µM): 98%
- viability, T/C (second compound 1 µM, first compound 0.1 µM): 96.8%
- viability, T/C (second compound 1 µM, first compound 0.316 µM): 103%
- viability, T/C (second compound 1 µM, first compound 1 µM): 93.2%
- viability, T/C (second compound 1 µM, first compound 3.16 µM): 79.5%
- viability, T/C (second compound 1 µM, first compound 10 µM): 32.8%
- viability, T/C (second compound 3.16 µM, first compound 0.0316 µM): 99.9%
- viability, T/C (second compound 3.16 µM, first compound 0.1 µM): 105%
- viability, T/C (second compound 3.16 µM, first compound 0.316 µM): 91.5%
- viability, T/C (second compound 3.16 µM, first compound 1 µM): 89.2%
- viability, T/C (second compound 3.16 µM, first compound 3.16 µM): 70.3%
- viability, T/C (second compound 3.16 µM, first compound 10 µM): 37.1%
- viability, T/C (second compound 10 µM, first compound 0.0316 µM): 97.7%
- viability, T/C (second compound 10 µM, first compound 0.1 µM): 97.2%
- viability, T/C (second compound 10 µM, first compound 0.316 µM): 102%
- viability, T/C (second compound 10 µM, first compound 1 µM): 88.5%
- viability, T/C (second compound 10 µM, first compound 3.16 µM): 62.5%
- viability, T/C (second compound 10 µM, first compound 10 µM): 34.8%

SMILES: CCN(c1cc(-c2ccc(CN3CCOCC3)cc2)cc(C(=O)NCc2c(C)cc(C)[nH]c2=O)c1C)C1CCOCC1 + Cc1ccccc1N=Nc1ccc(NC(=O)c2ccnn2C)c(C)c1
- pIC50 (second compound 0.1 µM): < 5.52
- pIC50 (second compound 0.316 µM): < 5.52
- pIC50 (second compound 1 µM): < 5.52
- pIC50 (second compound 3.16 µM): < 5.52
- pIC50 (second compound 10 µM): < 5.52
- viability, T/C [1]: 106%
- viability, T/C [2]: 104%
- viability, T/C [3]: 98.3%
- viability, T/C [4]: 107%
- viability, T/C [5]: 101%
- viability, T/C [6]: 110%
- viability, T/C [7]: 104%
- viability, T/C [8]: 106%
- viability, T/C [9]: 116%
- viability, T/C [10]: 111%
- viability, T/C [11]: 119%
- viability, T/C [12]: 118%
- viability, T/C [13]: 112%
- viability, T/C [14]: 106%
- viability, T/C [15]: 106%
- viability, T/C [16]: 97.4%
- viability, T/C [17]: 102%
- viability, T/C [18]: 98.6%
- viability, T/C [19]: 109%
- viability, T/C [20]: 114%
- viability, T/C [21]: 102%
- viability, T/C [22]: 93.3%
- viability, T/C [23]: 116%
- viability, T/C [24]: 94.2%
- viability, T/C [25]: 106%
- viability, T/C [26]: 102%
- viability, T/C [27]: 89.2%
- viability, T/C [28]: 100%
- viability, T/C [29]: 98.3%
- viability, T/C [30]: 103%

SMILES: Nc1ncn(C2CC(O)C(CO)S2)c(=O)n1 (stereo not given) + Cc1ccccc1N=Nc1ccc(NC(=O)c2ccnn2C)c(C)c1
- pIC50 (second compound 0.1 µM): < 6.52
- pIC50 (second compound 0.316 µM): < 6.52
- pIC50 (second compound 1 µM): < 6.52
- pIC50 (second compound 3.16 µM): < 6.52
- pIC50 (second compound 10 µM): < 6.52
- viability, T/C (second compound 0.1 µM, first compound 0.000949 µM): 102%
- viability, T/C (second compound 0.1 µM, first compound 0.003 µM): 99.8%
- viability, T/C [1]: 105%
- viability, T/C [2]: 99.6%
- viability, T/C [3]: 83.6%
- viability, T/C [4]: 68.7%
- viability, T/C (second compound 0.316 µM, first compound 0.000949 µM): 100%
- viability, T/C (second compound 0.316 µM, first compound 0.003 µM): 100%
- viability, T/C [7]: 103%
- viability, T/C [8]: 98.2%
- viability, T/C [9]: 100%
- viability, T/C [10]: 73.1%
- viability, T/C (second compound 1 µM, first compound 0.000949 µM): 99.6%
- viability, T/C (second compound 1 µM, first compound 0.003 µM): 96.5%
- viability, T/C [13]: 112%
- viability, T/C [14]: 97.1%
- viability, T/C [15]: 91.2%
- viability, T/C [16]: 75%
- viability, T/C (second compound 3.16 µM, first compound 0.000949 µM): 93.3%
- viability, T/C (second compound 3.16 µM, first compound 0.003 µM): 99.9%
- viability, T/C [19]: 94%
- viability, T/C [20]: 101%
- viability, T/C [21]: 86%
- viability, T/C [22]: 69.6%
- viability, T/C (second compound 10 µM, first compound 0.000949 µM): 91.1%
- viability, T/C (second compound 10 µM, first compound 0.003 µM): 108%
- viability, T/C [25]: 90.8%
- viability, T/C [26]: 88.2%
- viability, T/C [27]: 82.8%
- viability, T/C [28]: 63.4%

SMILES: O=C(C=Cn1cnc(-c2cc(C(F)(F)F)cc(C(F)(F)F)c2)n1)NNc1cnccn1 + Cc1ccccc1N=Nc1ccc(NC(=O)c2ccnn2C)c(C)c1
- pIC50 (second compound 0.1 µM): 6.27
- pIC50 (second compound 0.316 µM): 6.28
- pIC50 (second compound 1 µM): 6.33
- pIC50 (second compound 3.16 µM): 6.25
- pIC50 (second compound 10 µM): 6.37
- viability, T/C [1]: 103%
- viability, T/C [2]: 108%
- viability, T/C [3]: 104%
- viability, T/C [4]: 59.5%
- viability, T/C [5]: 41.4%
- viability, T/C [6]: 15.4%
- viability, T/C [7]: 109%
- viability, T/C [8]: 105%
- viability, T/C [9]: 115%
- viability, T/C [10]: 64.7%
- viability, T/C [11]: 38%
- viability, T/C [12]: 17.3%
- viability, T/C [13]: 113%
- viability, T/C [14]: 100%
- viability, T/C [15]: 104%
- viability, T/C [16]: 55.8%
- viability, T/C [17]: 38%
- viability, T/C [18]: 16.4%
- viability, T/C [19]: 91.6%
- viability, T/C [20]: 92.7%
- viability, T/C [21]: 101%
- viability, T/C [22]: 63.7%
- viability, T/C [23]: 38.6%
- viability, T/C [24]: 18.2%
- viability, T/C [25]: 88.4%
- viability, T/C [26]: 84.8%
- viability, T/C [27]: 74.5%
- viability, T/C [28]: 56.4%
- viability, T/C [29]: 34.8%
- viability, T/C [30]: 17.3%
